The values below are quoted from earlier work in PMC6225257 (Molecules : A Journal of Synthetic Chemistry and Natural …, 2018).

The conditions of this series: patients with chronic kidney disease; ref [18]. The source says: Here, we conjugated P88 to a paramagnetic MRI CA comprising a chelator (1,4,7,10-tetraazacyclododecane-1,4,7,10-tetraacetic acid, DOTA) complexed with GdCl3 to solve eventual limitations of the superparamagnetic CAs and pave the way towards future clinical implementation. Gadolinium (Gd)-based CAs (GBCA) are routinely employed in radiology as diagnostic agents.

Take Gd-DOTA: the “effect on renal function” value is listed as “does not affect renal function”.
